Measured values reported in the supplement of paper PMC10307832.

What was measured:
Experiment in all cases: relative viability (nuclei count vs DMSO), 5 days (fraction); higher = more cells survive
COR-L 105 = test system: COR-L 105
How it was run: (§1)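 Each reported value is a median over duplicate plates. It expresses relative viability: treated-well nuclei count divided by vehicle-well nuclei count. Lung cancer cell lines in 1536-well plates were dosed by pin tool a day after seeding, alone with one drug or with a fixed anchor-drug dose plus five library-drug doses (not always all listed) in √10 steps, and nuclei were counted after 5 days.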

LK-2 = test system: LK-2
How it was run: as §1

LOU-NH91 = test system: LOU-NH91
How it was run: as §1

NCI-H1666 = test system: NCI-H1666
How it was run: as §1

HCC-366 = test system: HCC-366
How it was run: as §1

BEN = test system: BEN
How it was run: as §1

NCI-H1650 = test system: NCI-H1650
How it was run: as §1

NCI-H727 = test system: NCI-H727
How it was run: as §1

NCI-H460 = test system: NCI-H460
How it was run: as §1

NCI-H441 = test system: NCI-H441
How it was run: as §1

PC-14 = test system: PC-14
How it was run: as §1

201T = test system: 201T
How it was run: as §1

NCI-H2170 = test system: NCI-H2170
How it was run: as §1

NCI-H3122 = test system: NCI-H3122
How it was run: as §1

NCI-H2009 = test system: NCI-H2009
How it was run: as §1

EKVX = test system: EKVX
How it was run: as §1

ABC-1 = test system: ABC-1
How it was run: as §1

SW 900 = test system: SW 900
How it was run: as §1

HARA = test system: HARA
How it was run: as §1

NCI-H661 = test system: NCI-H661
How it was run: as §1

NCI-H1437 = test system: NCI-H1437
How it was run: as §1

O=c1cc(-c2cccc3c2Sc2ccccc2S3)oc(N2CCOCC2)c1 + Nc1ncn([C@H]2C[C@H](O)[C@@H](CO)O2)c(=O)n1 [Decitabine] (partner 2 µM)
relative viability (COR-L 105; first compound 0.08 µM): 0.603
relative viability (COR-L 105; first compound 0.253 µM): 0.568
relative viability (COR-L 105; first compound 0.8 µM): 0.583
relative viability (COR-L 105; first compound 2.53 µM): 0.612
relative viability (COR-L 105; first compound 8 µM): 0.74
relative viability (LK-2; first compound 0.08 µM): 0.245
relative viability (LK-2; first compound 0.253 µM): 0.341
relative viability (LK-2; first compound 0.8 µM): 0.244
relative viability (LK-2; first compound 2.53 µM): 0.255
relative viability (LK-2; first compound 8 µM): 0.335
relative viability (LOU-NH91; first compound 0.08 µM): 0.777
relative viability (LOU-NH91; first compound 0.253 µM): 0.894
relative viability (LOU-NH91; first compound 0.8 µM): 0.784
relative viability (LOU-NH91; first compound 2.53 µM): 0.777
relative viability (LOU-NH91; first compound 8 µM): 0.844
relative viability (NCI-H1666; first compound 0.08 µM): 0.664
relative viability (NCI-H1666; first compound 0.253 µM): 0.799
relative viability (NCI-H1666; first compound 0.8 µM): 0.706
relative viability (NCI-H1666; first compound 2.53 µM): 0.678
relative viability (NCI-H1666; first compound 8 µM): 0.762
relative viability (HCC-366; first compound 0.08 µM): 0.324
relative viability (HCC-366; first compound 0.253 µM): 0.486
relative viability (HCC-366; first compound 0.8 µM): 0.363
relative viability (HCC-366; first compound 2.53 µM): 0.273
relative viability (HCC-366; first compound 8 µM): 0.33
relative viability (BEN; first compound 0.08 µM): 0.649
relative viability (BEN; first compound 0.253 µM): 0.699
relative viability (BEN; first compound 0.8 µM): 0.69
relative viability (BEN; first compound 2.53 µM): 0.586
relative viability (BEN; first compound 8 µM): 0.943
relative viability (NCI-H1650; first compound 0.08 µM): 0.415
relative viability (NCI-H1650; first compound 0.253 µM): 0.511
relative viability (NCI-H1650; first compound 0.8 µM): 0.416
relative viability (NCI-H1650; first compound 2.53 µM): 0.365
relative viability (NCI-H1650; first compound 8 µM): 0.374
relative viability (NCI-H727; first compound 0.08 µM): 0.704
relative viability (NCI-H727; first compound 0.253 µM): 1.05
relative viability (NCI-H727; first compound 2.53 µM): 0.773
relative viability (NCI-H727; first compound 8 µM): 0.895
relative viability (NCI-H460; first compound 0.08 µM): 0.476
relative viability (NCI-H460; first compound 0.253 µM): 0.659
relative viability (NCI-H460; first compound 0.8 µM): 0.462
relative viability (NCI-H460; first compound 2.53 µM): 0.468
relative viability (NCI-H460; first compound 8 µM): 0.669
relative viability (NCI-H441; first compound 0.08 µM): 0.221
relative viability (NCI-H441; first compound 0.253 µM): 0.232
relative viability (NCI-H441; first compound 0.8 µM): 0.223
relative viability (NCI-H441; first compound 2.53 µM): 0.257
relative viability (NCI-H441; first compound 8 µM): 0.265
relative viability (PC-14; first compound 0.08 µM): 0.213
relative viability (PC-14; first compound 0.253 µM): 0.19
relative viability (PC-14; first compound 0.8 µM): 0.185
relative viability (PC-14; first compound 2.53 µM): 0.165
relative viability (PC-14; first compound 8 µM): 0.217
relative viability (201T; first compound 0.08 µM): 0.855
relative viability (201T; first compound 0.253 µM): 0.882
relative viability (201T; first compound 0.8 µM): 0.893
relative viability (201T; first compound 2.53 µM): 0.816
relative viability (201T; first compound 8 µM): 0.744
relative viability (NCI-H2170; first compound 0.08 µM): 0.439
relative viability (NCI-H2170; first compound 0.253 µM): 0.524
relative viability (NCI-H2170; first compound 0.8 µM): 0.48
relative viability (NCI-H2170; first compound 2.53 µM): 0.424
relative viability (NCI-H2170; first compound 8 µM): 0.465
relative viability (NCI-H3122; first compound 0.08 µM): 0.36
relative viability (NCI-H3122; first compound 0.253 µM): 0.551
relative viability (NCI-H3122; first compound 0.8 µM): 0.45
relative viability (NCI-H3122; first compound 2.53 µM): 0.38
relative viability (NCI-H3122; first compound 8 µM): 0.534
relative viability (NCI-H2009; first compound 0.08 µM): 0.375
relative viability (NCI-H2009; first compound 0.253 µM): 0.358
relative viability (NCI-H2009; first compound 0.8 µM): 0.38
relative viability (NCI-H2009; first compound 2.53 µM): 0.348
relative viability (NCI-H2009; first compound 8 µM): 0.343
relative viability (EKVX; first compound 0.08 µM): 0.431
relative viability (EKVX; first compound 0.253 µM): 0.34
relative viability (EKVX; first compound 0.8 µM): 0.371
relative viability (EKVX; first compound 2.53 µM): 0.37
relative viability (EKVX; first compound 8 µM): 0.349
relative viability (ABC-1; first compound 0.08 µM): 0.993
relative viability (ABC-1; first compound 0.253 µM): 1.16
relative viability (ABC-1; first compound 0.8 µM): 1.33
relative viability (ABC-1; first compound 2.53 µM): 1.17
relative viability (ABC-1; first compound 8 µM): 1.19
relative viability (SW 900; first compound 0.253 µM): 0.453
relative viability (SW 900; first compound 0.8 µM): 0.414
relative viability (SW 900; first compound 2.53 µM): 0.428
relative viability (SW 900; first compound 8 µM): 0.433
relative viability (HARA; first compound 0.08 µM): 0.634
relative viability (HARA; first compound 0.253 µM): 0.52
relative viability (HARA; first compound 0.8 µM): 0.483
relative viability (HARA; first compound 2.53 µM): 0.555
relative viability (HARA; first compound 8 µM): 0.49
relative viability (NCI-H661; first compound 0.08 µM): 0.536
relative viability (NCI-H661; first compound 0.253 µM): 0.572
relative viability (NCI-H661; first compound 0.8 µM): 0.518
relative viability (NCI-H661; first compound 2.53 µM): 0.551
relative viability (NCI-H661; first compound 8 µM): 0.558
relative viability (NCI-H1437; first compound 0.08 µM): 0.573
relative viability (NCI-H1437; first compound 0.253 µM): 0.708
relative viability (NCI-H1437; first compound 0.8 µM): 0.628
relative viability (NCI-H1437; first compound 2.53 µM): 0.524
relative viability (NCI-H1437; first compound 8 µM): 0.578
